Laboratory results: PMC7587356, “High-Throughput Screening for Inhibitors of the SARS-CoV-2 Protease Using a FRET-Biosensor” (Molecules, 2020)
Where a name gives a salt, the structure may show the parent alone. Read-outs that look alike come from different tables or passages of the source.

Biological target: SARS-CoV-2 3CLpro (Severe acute respiratory syndrome coronavirus 2, UniProt P0DTD1)
Test: biochemical
Type: biochemical
Design: Replicate_1 / Replicate_2 / mean / mean (LOPAC_screen_w_protease): unit not given here
Settings: for inhibition at 5 µM: 4 h; for mean (LOPAC screen with protease) / Replicate_1 (LOPAC screen with protease) / Replicate_2 (LOPAC screen with protease): primary screen at 5 µM
[1] = sheet LOPAC_screen_w_protease, primary screen with protease, compound at 5 µM, mean of two replicates, read-out: mean
[2] = sheet LOPAC_screen_w_protease, primary screen with protease, compound at 5 µM, replicate 1, read-out: Replicate_1
[3] = sheet LOPAC_screen_w_protease, primary screen with protease, compound at 5 µM, replicate 2, read-out: Replicate_2
[4] = sheet LOPAC_screen_w_protease, LOPAC1280 primary screen with protease, 5 µM compound, mean of the two replicates, read-out: mean
[5] = sheet LOPAC_screen_w_protease, LOPAC1280 primary screen with protease, 5 µM compound, replicate 1, read-out: Replicate_1
[6] = sheet LOPAC_screen_w_protease, LOPAC1280 primary screen with protease, 5 µM compound, replicate 2, read-out: Replicate_2
[7] = LOPAC1280 primary screen with protease, 5 µM compound, replicate 1, read-out: Replicate_1 (LOPAC_screen_w_protease)
[8] = LOPAC1280 primary screen with protease, 5 µM compound, replicate 2, read-out: Replicate_2 (LOPAC_screen_w_protease)
[9] = LOPAC1280 primary screen with protease, 5 µM compound, mean of the two replicates
[10] = sheet LOPAC_screen_w_protease, primary screen of LOPAC1280 at 5 µM with protease, mean of the two replicates
[11] = sheet LOPAC_screen_w_protease, primary screen of LOPAC1280 at 5 µM with protease, replicate 1
[12] = sheet LOPAC_screen_w_protease, primary screen of LOPAC1280 at 5 µM with protease, replicate 2
[13] = LOPAC1280 primary screen with protease, 5 µM compound, mean of two replicates
[14] = LOPAC1280 primary screen with protease, 5 µM compound, replicate 1
[15] = LOPAC1280 primary screen with protease, 5 µM compound, replicate 2
[16] = sheet LOPAC_screen_w_protease, mean of two replicates
[17] = sheet LOPAC_screen_w_protease, replicate 1
[18] = sheet LOPAC_screen_w_protease, replicate 2

`CNC(=O)OCC[N+](C)(C)C` [Methylcarbamylcholine chloride] was tested, and the inhibition at 5 µM [1] was 3%, the inhibition at 5 µM [2] was 4.73% and the inhibition at 5 µM [3] was 1.26%.

Work on `CC[C@@H](CO)NC(=O)[C@@H]1C=C2c3cccc4[nH]cc(c34)C[C@H]2N(C)C1` [Methylergonovine maleate] yielded an inhibition at 5 µM (read-out: Replicate_1) of 1.27%, an inhibition at 5 µM (read-out: Replicate_2) of 0.625% and an inhibition at 5 µM (read-out: mean) of 0.949%.

Molecule `Cc1ccccc1N1C(=O)c2cc(S(N)(=O)=O)c(Cl)cc2NC1C` (stereo not drawn) [Metolazone] has an inhibition at 5 µM [4] of 5.24%, an inhibition at 5 µM [5] of 4.55% and an inhibition at 5 µM [6] of 5.92%.

In the case of `Cc1ccccc1/C=C/C1=NCCN1` [Metrazoline oxalate], the inhibition at 5 µM [7] is reported as 2.83%, the inhibition at 5 µM [8] is reported as 0.879% and the “mean (LOPAC_screen_w_protease)” value [9] is reported as 1.853.

`Cc1ccccc1CNc1ncnc2c1ncn2[C@@H]1O[C@H](CO)[C@@H](O)[C@H]1O` [Metrifudil] showed an inhibition at 5 µM [4] of 4.56%, an inhibition at 5 µM [5] of 4.09% and an inhibition at 5 µM [6] of 5.03%.

With `CC[C@H](C)C(=O)O[C@H]1CCC=C2C=C[C@H](C)[C@H](CC[C@@H]3C[C@@H](O)CC(=O)O3)[C@H]21` [Mevastatin] the inhibition at 5 µM [4] was 4.58%, the inhibition at 5 µM [5] was 3.98% and the inhibition at 5 µM [6] was 5.17%.

`COCC(=O)O[C@]1(CCN(C)CCCc2nc3ccccc3[nH]2)CCc2cc(F)ccc2[C@@H]1C(C)C` [Mibefradil dihydrochloride] was tested, and the inhibition at 5 µM [4] was 4.42%, the inhibition at 5 µM [5] was 3.3% and the inhibition at 5 µM [6] was 5.54%.

`CC#C[C@]1(O)CC[C@H]2[C@@H]3CCC4=CC(=O)CCC4=C3[C@@H](c3ccc(N(C)C)cc3)C[C@@]21C` [Mifepristone] showed an inhibition at 5 µM [4] of 4.62%, an inhibition at 5 µM [5] of 3.53% and an inhibition at 5 µM [6] of 5.7%.

In the case of `Cc1[nH]c(=O)c(C#N)cc1-c1ccncc1` [Milrinone], the inhibition at 5 µM [4] is reported as 4.26%, the inhibition at 5 µM [5] is reported as 3.12% and the inhibition at 5 µM [6] is reported as 5.4%.

For `CN(C)c1ccc(O)c2c1C[C@H]1C[C@H]3[C@H](N(C)C)C(O)=C(C(N)=O)C(=O)[C@@]3(O)C(O)=C1C2=O` [Minocycline hydrochloride], the inhibition at 5 µM [4] was 5.31%, the inhibition at 5 µM [5] was 4.79% and the inhibition at 5 µM [6] was 5.84%.

With `Nc1cc(N2CCCCC2)nc(N)[n+]1[O-]` [Minoxidil] the inhibition at 5 µM [1] was 2.95%, the inhibition at 5 µM [2] was 3.92% and the inhibition at 5 µM [3] was 1.98%.

In the case of `NC(=O)c1ncn([C@@H]2O[C@H](CO)[C@@H](O)[C@H]2O)c1O` [Mizoribine], the inhibition at 5 µM [4] is reported as 4.8%, the inhibition at 5 µM [5] is reported as 4.56% and the inhibition at 5 µM [6] is reported as 5.05%.

With `CCOC(=O)[N-]c1cn(N2CCOCC2)n[o+]1` [Molsidomine] the inhibition at 5 µM [1] was 2.83%, the inhibition at 5 µM [2] was 1.44% and the inhibition at 5 µM [3] was 4.23%.

`CCOC(=O)C1=C(C)NC(=S)NC1c1cccc(O)c1` (stereo not drawn) [Monastrol] showed an inhibition at 5 µM [4] of 6.04%, an inhibition at 5 µM [5] of 5.54% and an inhibition at 5 µM [6] of 6.55%.

`O=c1c(O)c(-c2ccc(O)cc2O)oc2cc(O)cc(O)c12` [Morin] gave an inhibition at 5 µM (read-out: Replicate_1) of 6.85%, an inhibition at 5 µM (read-out: Replicate_2) of 5.63% and an inhibition at 5 µM (read-out: mean) of 6.24%.

Work on `CC(=O)Oc1cc(C(C)C)c(OCCN(C)C)cc1C` [Moxisylyte hydrochloride] yielded an inhibition at 5 µM (sheet LOPAC_screen_w_protease, primary screen of LOPAC1280 at 5 µM with protease, mean of the two replicates, read-out: mean) of 3.55%, an inhibition at 5 µM (sheet LOPAC_screen_w_protease, primary screen of LOPAC1280 at 5 µM with protease, replicate 1, read-out: Replicate_1) of 4.09% and an inhibition at 5 µM (sheet LOPAC_screen_w_protease, primary screen of LOPAC1280 at 5 µM with protease, replicate 2, read-out: Replicate_2) of 3.01%.

Work on `COc1nc(C)nc(Cl)c1NC1=NCCN1.Cl` [Moxonidine hydrochloride] yielded a mean [10] of 3.905, a Replicate_1 [11] of 2.314 and a Replicate_2 [12] of 5.497.

With `Br.NCc1cc(O)no1` [Muscimol hydrobromide] the mean (sheet LOPAC_screen_w_protease, primary screen with protease, 5 µM, mean of two replicates) was 0.06352, the Replicate_1 (sheet LOPAC_screen_w_protease, primary screen with protease, 5 µM, replicate 1) was 2.752 and the Replicate_2 (sheet LOPAC_screen_w_protease, primary screen with protease, 5 µM, replicate 2) was -2.625.

Molecule `Nc1ccc(CCNc2ncnc3c2ncn3[C@@H]2O[C@H](CO)[C@@H](O)[C@H]2O)cc1` [N6-2-(4-Aminophenyl)ethyladenosine] has a mean [10] of 3.204, a Replicate_1 [11] of 3.6817 and a Replicate_2 [12] of 2.726.

In the case of `OC[C@H]1O[C@@H](n2cnc3c(NCCc4ccccc4)ncnc32)[C@H](O)[C@@H]1O` [N6-2-Phenylethyladenosine], the mean (sheet LOPAC_screen_w_protease, LOPAC1280 primary screen at 5 µM, with protease, mean of the two replicates) is reported as 0.6761, the Replicate_1 (sheet LOPAC_screen_w_protease, LOPAC1280 primary screen at 5 µM, with protease, replicate 1) is reported as 1.884 and the Replicate_2 (sheet LOPAC_screen_w_protease, LOPAC1280 primary screen at 5 µM, with protease, replicate 2) is reported as -0.5317.

In the case of `CCNC(=O)[C@H]1O[C@@H](n2cnc3c(NCc4ccccc4)ncnc32)[C@H](O)[C@@H]1O` [N6-Benzyl-5'-N-ethylcarboxamidoadenosine], the mean (sheet LOPAC_screen_w_protease, LOPAC1280 at 5 µM, mean of two replicates) is reported as 1.239, the Replicate_1 (sheet LOPAC_screen_w_protease, LOPAC1280 at 5 µM, replicate 1) is reported as -0.1675 and the Replicate_2 (sheet LOPAC_screen_w_protease, LOPAC1280 at 5 µM, replicate 2) is reported as 2.645.

With `OC[C@H]1O[C@@H](n2cnc3c(NC4CCCCC4)ncnc32)[C@H](O)[C@@H]1O` [N6-Cyclohexyladenosine] the “mean (LOPAC_screen_w_protease)” value [13] was 1.471, the “Replicate_1 (LOPAC_screen_w_protease)” value [14] was 2.337 and the “Replicate_2 (LOPAC_screen_w_protease)” value [15] was 0.606.

`Cn1cnc2c(NC3CCCC3)ncnc21` [N6-Cyclopentyl-9-methyladenine] showed a mean [10] of 3.328, a Replicate_1 [11] of 3.176 and a Replicate_2 [12] of 3.4795.

With `OC[C@H]1O[C@@H](n2cnc3c(NC4CCCC4)ncnc32)[C@H](O)[C@@H]1O` [N6-Cyclopentyladenosine] the inhibition at 5 µM (sheet LOPAC_screen_w_protease, primary screen with protease, mean of two replicates, read-out: mean) was 2.13%, the inhibition at 5 µM (sheet LOPAC_screen_w_protease, primary screen with protease, replicate 1, read-out: Replicate_1) was 1.59% and the inhibition at 5 µM (sheet LOPAC_screen_w_protease, primary screen with protease, replicate 2, read-out: Replicate_2) was 2.67%.

For `CNc1ncnc2c1ncn2[C@@H]1O[C@H](CO)[C@@H](O)[C@H]1O` [N6-Methyladenosine], the mean (sheet LOPAC_screen_w_protease, primary screen with protease, compound at 5 µM, mean of two replicates) was 2.9788, the Replicate_1 (sheet LOPAC_screen_w_protease, primary screen with protease, compound at 5 µM, replicate 1) was 2.994 and the Replicate_2 (sheet LOPAC_screen_w_protease, primary screen with protease, compound at 5 µM, replicate 2) was 2.964.

With `OC[C@H]1O[C@@H](n2cnc3c(Nc4ccccc4)ncnc32)[C@H](O)[C@@H]1O` [N6-Phenyladenosine] the inhibition at 5 µM [7] was 2.83%, the inhibition at 5 µM [8] was 0.0632% and the “mean (LOPAC_screen_w_protease)” value [13] was 1.447.

In the case of `CN(C)C(=O)N=NC(=O)N(C)C` [N,N,N',N'-Tetramethylazodicarboxamide], the “mean (LOPAC screen with protease)” value [16] is reported as 22.0405, the “Replicate_1 (LOPAC screen with protease)” value [17] is reported as 23.2519 and the “Replicate_2 (LOPAC screen with protease)” value [18] is reported as 20.8292.

In the case of `NCC(=O)NCCC(c1ccccc1)c1ccccc1` [N-(3,3-Diphenylpropyl)glycinamide], the “mean (LOPAC_screen_w_protease)” value [13] is reported as 1.396, the “Replicate_1 (LOPAC_screen_w_protease)” value [14] is reported as 1.194 and the “Replicate_2 (LOPAC_screen_w_protease)” value [15] is reported as 1.598.

`Nc1ccc(N2C(=O)c3ccccc3C2=O)c(Cl)c1` [N-(4-Amino-2-chlorophenyl)phthalimide] was tested, and the mean (sheet LOPAC_screen_w_protease, primary screen with protease, mean of two replicates) was 2.38, the Replicate_1 (sheet LOPAC_screen_w_protease, primary screen with protease, replicate 1) was 2.0208 and the Replicate_2 (sheet LOPAC_screen_w_protease, primary screen with protease, replicate 2) was 2.74.

In the case of `CC(=O)NCCc1c[nH]c2ccc(O)cc12` [N-Acetyl-5-hydroxytryptamine], the “mean (LOPAC_screen_w_protease)” value [13] is reported as 1.513, the “Replicate_1 (LOPAC_screen_w_protease)” value [14] is reported as 1.947 and the “Replicate_2 (LOPAC_screen_w_protease)” value [15] is reported as 1.078.

For `CC(=O)N[C@@H](CS)C(=O)O` [N-Acetyl-L-Cysteine], the inhibition at 5 µM (read-out: Replicate_1) was 0.481%, the inhibition at 5 µM (read-out: Replicate_2) was 0.723% and the inhibition at 5 µM (read-out: mean) was 0.602%.

With `CC(=O)NCCc1ccc(O)c(O)c1.O` [N-Acetyldopamine monohydrate] the “mean (LOPAC screen with protease)” value [16] was 81.0563, the “Replicate_1 (LOPAC screen with protease)” value [17] was 83.9163 and the “Replicate_2 (LOPAC screen with protease)” value [18] was 78.1962.

`CCN(CC)CCNC(=O)c1ccc(NC(C)=O)cc1.Cl` [N-Acetylprocainamide hydrochloride] was tested, and the “mean (LOPAC_screen_w_protease)” value [13] was 1.374, the “Replicate_1 (LOPAC_screen_w_protease)” value [14] was 0.6051 and the “Replicate_2 (LOPAC_screen_w_protease)” value [15] was 2.1421.

`CC(=O)NCCc1c[nH]c2ccccc12` [N-Acetyltryptamine] showed an inhibition at 5 µM (sheet LOPAC_screen_w_protease, LOPAC1280 primary screen at 5 µM, with protease, mean of the two replicates, read-out: mean) of 0.808%, an inhibition at 5 µM (sheet LOPAC_screen_w_protease, LOPAC1280 primary screen at 5 µM, with protease, replicate 1, read-out: Replicate_1) of 1.07% and an inhibition at 5 µM (sheet LOPAC_screen_w_protease, LOPAC1280 primary screen at 5 µM, with protease, replicate 2, read-out: Replicate_2) of 0.543%.

For `CC(=O)NBr` [N-Bromoacetamide], the “mean (LOPAC_screen_w_protease)” value [9] was 1.955, the “Replicate_1 (LOPAC_screen_w_protease)” value [14] was 1.503 and the “Replicate_2 (LOPAC_screen_w_protease)” value [15] was 2.407.

In the case of `CCN1C(=O)C=CC1=O` [N-Ethylmaleimide], the inhibition at 5 µM [7] is reported as 5.02%, the inhibition at 5 µM [8] is reported as -1.33% and the “mean (LOPAC_screen_w_protease)” value [9] is reported as 1.849.
